According to US5883084A, “Treatment of respiratory diseases utilizing α-tocopheryl-phosphocholine” (Clarion Pharmaceuticals Inc., priority 1998, dated 1999):

Legend:
Mouse Tracheal Mucus = assay: Mucolytic activity in mouse tracheal mucus (phenol red secretion, aerosol); type: in vivo; conditions: mice, 25 mg/mL in saline, approximately 100 mg/kg, 5 mice, saline control zero percent
Description: The invention provides a method of alleviating respiratory distress due to tenacious pulmonary mucous secretions in a patient suffering from such distress. In the preferred embodiment, the method is accomplished by the intermittent inhalation of an aerosol or dry powder formulation of α-tocopheryl-phosphocholine to deliver an effective mucolytic amount of α-tocopheryl-phosphocholine to the lung airways. […] The in vivo mucolytic assay is similar to that described by Chand et al. Agents and Actions, (1993) 38:165-170, incorporated herein by reference.
The procedure, which delivers the test compound to mice as an aerosol, is a modified assay for the evaluation of mucolytic activity in mice as described by Chand et al., previously cited.
1. The test animals are Hsd:1CR(CD-1) mice that weigh approximately 25 g each.
2. The test compound is diluted in normal saline to a concentration of 25 mg/mL and administered using a human De Vilbiss atomizer Model No. 15 at approximately 100 mg/kg. The control group receives saline. The nozzle is placed in the mouth of the mouse and 2 spray doses are given.
3. After 30 minutes, phenol red dissolved as a 5% solution in saline is given IP at a dose of 0.1 mL/10 g body weight.
4. […]
6. The amount of phenol red secreted into the trachea is quantitated photometrically at 546 nm. […]

[1] = system: RAW 264.7 murine monocyte/macrophage cell line (PMA-stimulated respiratory burst); assay: In vitro anti-inflammatory activity by inhibition of macrophage activation (luminol chemiluminescence, PMA-stimulated); type: cell-based, mouse; conditions: for inhibition at 1000 µM / inhibition at 3000 µM / inhibition at 10000 µM / inhibition at 30000 µM: Mus musculus, RAW264.7, RAW 264.7, PMA 100 ng, luminol; for inhibition at 1000 µM: 1 mM; for inhibition at 3000 µM: 3 mM; for inhibition at 10000 µM: 10 mM; for inhibition at 30000 µM: 30 mM
Method: Activation of alveolar macrophages is a critical component of pulmonary inflammation. In their activated state, alveolar macrophages secrete a variety of inflammatory mediators and reactive oxygen species. In the present in vitro model of inflammation, mouse macrophages are activated by phorbol-12-myristate-13-acetate (PMA). The intensity of macrophage activation in the presence or absence of the subject compounds is determined by measuring the respiratory burst (release of reactive oxygen species) of the macrophages.
The RAW 264.7 cell line (American Type Culture Collection, Rockville, Md., USA, Accession No. TIE 71) is a murine monocyte/macrophage line, the cells of which show many of the differentiative functions of a macrophage. Like macrophages, the cells are capable of phagocytosis and undergo an oxidative burst (increased oxygen consumption) and production of oxygen radicals (e.g., superoxide) in response to appropriate signals. Agents that inhibit the activation of these cells in vitro so as to inhibit the respiratory burst and corresponding production of oxygen radicals associated with activation interdict a critical step in the inflammatory process.
The respiratory burst and corresponding production of oxygen radicals that accompany macrophage activation can be measured in a variety of ways, including chemiluminescence based on the reaction of the oxygen radicals with luminol added to the culture medium (see M. A. Trush et al., 1978, "The Generation of Chemiluminescence by Phagocytic Cells.", Methods in Enzymology 57: 462-494). Chemiluminescence generated from luminol in the culture medium of macrophage cell lines is recognized in the art as a marker of macrophage activation. Materials:
Cell line: RAW 264.7 (ATCC TIB-71, attachment dependent);
Culture medium: Dulbecco's Modified Eagle's Medium (DMEM, Sigma Chemical Co. Cat. No. D-7777) with 10% Fetal Bovine Serum (FBS);
Standard protocol for culturing cell lines: in T-75 or T-150 flasks; 37° C.; 95% air, 5% CO2; 100% humidity;
Cell line is passaged when approximately 80% confluent; with trypsin (1 mg/mL) and ethylenediamine tetraacetic acid (EDTA) (1 mM in Ca-Mg free Hank's balanced salt solution); at 1:4 to 1:5 split;
All procedures are performed aseptically in a Class II biological safety cabinet using standard Biosafety Level 2 (BL-2 containment procedures. In order to prevent genetic drift in stock cell lines, fresh cultures are prepared at approximately monthly intervals with cells thawed from liquid nitrogen storage. Methodology:
After cell passage, count cells with a hemocytometer; Adjust cell concentration to approximately 1,000,000 cells per mL;
Suspend cells in DMEM lacking phenol red and without FBS;
Pipette 1 mL of cell suspension into a standard luminometer cuvette (12×75 mm), commercially obtainable from Analytical Luminescence Laboratories, San Diego, Calif., USA;
Add luminol to final concentration of 0.2 mM;
Add test compound dissolved in phosphate buffered saline (PBS), or in dimethyl sulfoxide (DMSO) for final concentration levels ranging from 1 to 30 mM;
Add 100 nanograms of phorbol myristate acetate (PMA); and
Wait 1 minute and read photo counts (i.e., luminescence) on a Monolight 2010 luminometer available from Analytical Luminescence Laboratories, San Diego.

premature fetal rabbits = assay: Surfactant activity in RDS model using premature fetal rabbits (dynamic lung compliance); type: in vivo, rabbit; conditions: fetal rabbits 27 days gestation, 0.2 mL endotracheal instillation, 30 minute intervals for 90 minutes
Method: A common in vivo model for the evaluation of surfactants is lung compliance in premature fetal rabbits. This method is described in Revak et al., Am. Rev. Respir. Dir. (1986) 134:1258-1265. In this assay, the effectiveness of the subject compounds as lung surfactants is determined by evaluating dynamic lung compliance in premature fetal rabbits which are known to have difficulty initiating breathing due to low levels of natural lung surfactant.
1. The test animals are fetal rabbits delivered prematurely at 27 days of gestation.
2. The test solution is prepared by suspending the Formula I compound ([…]) in 6 mL of 10 mM HEPES buffer with sodium chloride (150 mM) at a pH of 7.4.
3. 0.2 mL of test solution is administered to the fetal rabbit before breathing commenced by endotracheal instillation and then monitored for breathing. The control group receives saline.
4. The fetal rabbit is ventilated and monitored for breathing.
5. After 30 minutes, the rabbit is examined for quality of breathing and color. A healthy pink color is indicative of good breathing. […] The higher the value of measured compliance, the better the breathing of the test animal.
6. Compliance values are determined at 30 minute intervals for 90 minutes.

[2] = system: Histamine-Induced Airway Resistance; assay: Histamine-induced airway resistance in anesthetized guinea pigs (total pulmonary resistance); type: in vivo, guinea pig; conditions: after induction with histamine, salbutamol 10 μg/kg or same equivalent dosage
Method: The following is a protocol for the evaluation of anti-histamine activity in anesthetized guinea pigs.
1. Guinea pigs of 650-1000 g are used to facilitate catheterization of the jugular vein and carotid artery. The guinea pigs are anesthetized with 35-45 mg/kg pentobarbital sodium. When or if the recordings are unstable, anesthetic additions are made during the course of the intervention. The cutdown is a ventral medial incision over the cervical area so that the trachea, jugular vein and carotid artery can be cannulated. The animals are immediately attached to a volume regulated Harvard® rodent respirator, Model 683, via a tracheostomy and the respirator is set at 60 respirations per minute and a volume of 8 ml/kg to maintain a normal arterial P-CO2 of approximately 40 mmHg. […] These two parameters are measured before and after each drug is given and at each increment in the dose response studies with each drug candidate and recorded. Total pulmonary resistance (TPR) is calculated as the difference between the expiratory pressure and inspiratory pressures with a constant volume.
After the anesthetic and muscle relaxant are given, the animal is allowed to stabilize. […] The dose-related increases or decreases are quantitated against these controls to determine the percent inhibition of histamine activity. […]

| SMILES | average measured percent change in mucolytic activity (Mouse Tracheal Mucus) | anti-inflammatory activity with increasing concentration ([1]; 1 to 30 mM, in contrast to α-tocopherol) | inhibition at 1000 µM [1] [%] | inhibition at 3000 µM [1] [%] | inhibition at 10000 µM [1] [%] | inhibition at 30000 µM [1] [%] | compliance values (dynamic lung compliance) (premature fetal rabbits) | TPR course after administration [2] |
| --- | --- | --- | --- | --- | --- | --- | --- | --- |
| Cc1c(C)c2c(c(C)c1OP(=O)([O-])OCC[N+](C)(C)C)CCC(C)(CCCC(C)CCCC(C)CCCC(C)C)O2 (stereo not drawn) [CPR 2001, α-tocopheryl-phosphocholine] | about 82.6% | anti-inflammatory activity markedly increases | 5 | 13 | 31 | 56 | significantly greater compliance values | – |
| CC(=O)N[C@@H](CS)C(=O)O [N-acetylcysteine, reference compound] | about 59.5% | – | – | – | – | – | – | – |
| CC(C)(C)NCC(O)c1ccc(O)c(CO)c1 (stereo not shown) [salbutamol] | – | – | – | – | – | – | – | briefly increased and then decreased below the control value |
| Cc1c(C)c2c(c(C)c1O)CCC(C)(CCCC(C)CCCC(C)CCCC(C)C)O2 (stereo not drawn) [α-tocopherol, reference compound] | – | – | -3 | -6 | -6 | -14 | – | – |
